The values that follow are results of earlier work, collected in patent US7785578B2, “Non-invasive ocular drug delivery” (Aciont, Inc., priority 2002, dated 2010).

For the series the following is noted: following a 5 mg peribulbar injection; comparable to a high oral dose (approximately 7.5 mg).

Consider `C[C@@H]1C[C@H]2[C@@H]3CCC4=CC(=O)C=C[C@]4(C)[C@@]3(F)[C@@H](O)C[C@]2(C)[C@@]1(O)C(=O)CO` [dexamethasone], for which the “systemic levels in plasma” value is 60 ng/mL.
